This note sets out measurements from PMC5546122, “Effects of Fungicides on Rat's Neurosteroid Synthetic Enzymes” (BioMed Research International, 2017).

Data set [1] has as its target T1, 3α-HSD (3α-hydroxysteroid dehydrogenase; AKR1C14) (Rattus norvegicus, UniProt P23457).
T1 construct: gene Akr1c9; Akr1c14 in pRc/CMV, transient expression in COS-1 cells, cytosolic fraction
T1 sequence (P23457 1-322): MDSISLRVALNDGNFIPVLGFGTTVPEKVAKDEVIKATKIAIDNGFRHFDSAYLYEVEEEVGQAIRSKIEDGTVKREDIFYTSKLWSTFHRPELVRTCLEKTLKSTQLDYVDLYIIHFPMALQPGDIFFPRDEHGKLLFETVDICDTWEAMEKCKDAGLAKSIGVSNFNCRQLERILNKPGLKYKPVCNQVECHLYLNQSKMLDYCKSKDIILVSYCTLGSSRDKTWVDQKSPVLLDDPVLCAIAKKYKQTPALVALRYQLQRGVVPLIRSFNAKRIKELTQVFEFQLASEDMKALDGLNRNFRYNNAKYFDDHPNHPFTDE
The experiment in a line: radiometric TLC enzyme assay, transfected COS-1 cytosol. The data set is classed as biochemical. From the text:
radiometric TLC enzyme assay, transfected COS-1 cytosol on 3α-HSD (3α-hydroxysteroid dehydrogenase; AKR1C14)

For data set [2], the target named is T2, 5α-Red1 (5α-reductase 1; SRD5A1) (Rattus norvegicus, UniProt P24008).
T2 construct: Srd5a1 in pcDNA1.1, transient expression in COS-1 cells, microsomal fraction
T2 sequence (P24008 1-259): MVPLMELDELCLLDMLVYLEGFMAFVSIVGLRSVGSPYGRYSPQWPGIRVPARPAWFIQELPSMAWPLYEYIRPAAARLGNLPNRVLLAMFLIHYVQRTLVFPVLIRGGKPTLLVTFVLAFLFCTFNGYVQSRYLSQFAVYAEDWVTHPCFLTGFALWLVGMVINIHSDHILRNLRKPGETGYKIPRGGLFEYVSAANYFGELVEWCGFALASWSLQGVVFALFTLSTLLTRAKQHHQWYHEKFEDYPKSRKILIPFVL
The experiment in a line: radiometric TLC enzyme assay, transfected COS-1 microsomes. It counts as biochemical. From the text: radiometric TLC enzyme assay, transfected COS-1 microsomes on 5α-Red1 (5α-reductase 1; SRD5A1)

Data set [3] addresses T3, RDH2 (retinol dehydrogenase 2) (Rattus norvegicus, UniProt P50170).
T3 construct: gene Rdh16; full-length cDNA in pcDNA1.1, transient expression in COS-1 cells, microsomal fraction
T3 sequence (P50170 1-317): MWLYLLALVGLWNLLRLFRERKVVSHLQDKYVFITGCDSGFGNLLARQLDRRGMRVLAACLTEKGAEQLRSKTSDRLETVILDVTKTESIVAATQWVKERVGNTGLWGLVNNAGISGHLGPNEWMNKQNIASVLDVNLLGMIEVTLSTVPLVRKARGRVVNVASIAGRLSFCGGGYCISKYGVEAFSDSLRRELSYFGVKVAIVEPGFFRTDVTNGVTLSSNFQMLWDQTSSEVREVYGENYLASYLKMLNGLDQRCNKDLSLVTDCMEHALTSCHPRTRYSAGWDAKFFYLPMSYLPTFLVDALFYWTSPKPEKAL
Described as above. It counts as biochemical. The text has this: radiometric TLC enzyme assay, transfected COS-1 microsomes on RDH2 (retinol dehydrogenase 2)

Data set [4] deals with T3, RDH2 (retinol dehydrogenase 2). The description is as above. As to conditions: read-out: % of control activity at 100 μM. The data set is classed as biochemical.
Data set [5] has as its target T2, 5α-Red1 (5α-reductase 1; SRD5A1). The data set is described as above. It counts as biochemical. As to conditions: read-out: % of control activity at 100 μM.
Substrate in data set [6]: C[C@]12CC[C@@H](O)C[C@@H]1CC[C@@H]1[C@@H]2CC[C@]2(C)[C@@H](O)CC[C@@H]12
The experiment in a line: cells, lysate or membranes. As to conditions: 0.2 mM NAD+, 0.0315–10 µM DIOL, PBS pH 7.2, radiolabelled tracer.

Substrate in data set [7]: C[C@]12CCC(=O)C[C@@H]1CC[C@@H]1[C@@H]2CC[C@]2(C)[C@@H](O)CC[C@@H]12
Description: cells, lysate or membranes. As to conditions: 0.2 mM NADPH, 0.0315–10 µM dihydrotestosterone, PBS pH 7.2, radiolabelled tracer.

Substrate in data set [8]: C[C@]12CC[C@H]3[C@@H](CCC4=CC(=O)CC[C@@]43C)[C@@H]1CC[C@@H]2O
Description: cells, lysate or membranes. The following applies: 0.2 mM NADPH, 0.0315–10 µM testosterone, PBS pH 7.2, radiolabelled tracer.

Read-outs that look alike come from different tables or passages of the source.

In the case of `CC(C)(C)C(O)(CCc1ccc(Cl)cc1)Cn1cncn1` (stereo not drawn) [tebuconazole], the IC50 in data set [1] was ~100 µM; in data set [2], 8.67 ± 0.771 µM; in data set [3] (read-out: 3α-HSD), > 100 µM.
With `CC(C)(C)C(=O)C(Oc1ccc(Cl)cc1)n1cncn1` (stereo not drawn) [triadimefon], the IC50 in data set [1] is 26.49 ± 0.076 µM; in data set [2], 17.39 ± 0.079 µM; in data set [3] (read-out: RDH2) it was > 100 µM.
`C=CC1(C)OC(=O)N(c2cc(Cl)cc(Cl)c2)C1=O` (stereo not drawn) [vinclozolin]: the IC50 in data set [1] is ~100 µM. Also, the remaining activity at 100 µM in data set [4] was 85.5 ± 2.2%; in data set [5], 74.2 ± 5.57%.

B1: RDH2 (retinol dehydrogenase 2) (Rattus norvegicus) (protein)
chain: MWLYLLALVGLWNLLRLFRERKVVSHLQDKYVFITGCDSGFGNLLARQLDRRGMRVLAACLTEKGAEQLRSKTSDRLETVILDVTKTESIVAATQWVKERVGNTGLWGLVNNAGISGHLGPNEWMNKQNIASVLDVNLLGMIEVTLSTVPLVRKARGRVVNVASIAGRLSFCGGGYCISKYGVEAFSDSLRRELSYFGVKVAIVEPGFFRTDVTNGVTLSSNFQMLWDQTSSEVREVYGENYLASYLKMLNGLDQRCNKDLSLVTDCMEHALTSCHPRTRYSAGWDAKFFYLPMSYLPTFLVDALFYWTSPKPEKAL
The Km is the substrate concentration at which the rate is half of its maximum. Usually Vmax stands for the rate approached at saturating substrate. In the case of B1, in data set [6], the Km stood at 2.850 ± 0.037 µM and the Vmax is 0.00053 µmol/min/mg.

B2: 3α-HSD (3α-hydroxysteroid dehydrogenase; AKR1C14) (Rattus norvegicus) (protein)
chain: MDSISLRVALNDGNFIPVLGFGTTVPEKVAKDEVIKATKIAIDNGFRHFDSAYLYEVEEEVGQAIRSKIEDGTVKREDIFYTSKLWSTFHRPELVRTCLEKTLKSTQLDYVDLYIIHFPMALQPGDIFFPRDEHGKLLFETVDICDTWEAMEKCKDAGLAKSIGVSNFNCRQLERILNKPGLKYKPVCNQVECHLYLNQSKMLDYCKSKDIILVSYCTLGSSRDKTWVDQKSPVLLDDPVLCAIAKKYKQTPALVALRYQLQRGVVPLIRSFNAKRIKELTQVFEFQLASEDMKALDGLNRNFRYNNAKYFDDHPNHPFTDE
As for B2, in data set [7], the Km was determined as 3.148 ± 0.197 µM and the Vmax turned out to be 6.67e-05 µmol/min/mg.

B3: 5α-Red1 (5α-reductase 1; SRD5A1) (Rattus norvegicus) (protein)
chain: MVPLMELDELCLLDMLVYLEGFMAFVSIVGLRSVGSPYGRYSPQWPGIRVPARPAWFIQELPSMAWPLYEYIRPAAARLGNLPNRVLLAMFLIHYVQRTLVFPVLIRGGKPTLLVTFVLAFLFCTFNGYVQSRYLSQFAVYAEDWVTHPCFLTGFALWLVGMVINIHSDHILRNLRKPGETGYKIPRGGLFEYVSAANYFGELVEWCGFALASWSLQGVVFALFTLSTLLTRAKQHHQWYHEKFEDYPKSRKILIPFVL
B3: in data set [8], the Km turned out to be 1.397 ± 0.35 µM and the Vmax was found to be 3.49e-06 µmol/min/mg.
